The values that follow come from the Kinase Knowledgebase extract (Sharma et al. 2016).

A word on the IC50: it is the concentration at which inhibition is half-maximal.

Structures are written as SMILES.

For this test, the target named is MAPK14 (UniProt Q16539). In words: p38 Kinase Inhibition.
Sequence of MAPK14 (Q16539 whole entry, looked up): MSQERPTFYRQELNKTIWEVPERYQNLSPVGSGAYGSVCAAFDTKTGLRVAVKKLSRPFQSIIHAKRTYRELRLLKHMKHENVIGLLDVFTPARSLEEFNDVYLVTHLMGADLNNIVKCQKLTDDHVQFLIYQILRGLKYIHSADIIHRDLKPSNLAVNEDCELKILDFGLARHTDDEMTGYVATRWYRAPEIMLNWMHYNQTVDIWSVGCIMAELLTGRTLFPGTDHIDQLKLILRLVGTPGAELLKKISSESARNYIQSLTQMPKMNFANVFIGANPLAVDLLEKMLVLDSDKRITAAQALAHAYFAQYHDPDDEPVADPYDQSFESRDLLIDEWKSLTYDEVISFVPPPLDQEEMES
As for `Fc1ccc(-c2ncn(C3CCCCC3)c2-c2ccnc(NCCc3c[nH]cn3)n2)cc1`, the IC50 is less than 50 µM.

The compound `Fc1ccc(-c2ncn(C3CCCCC3)c2-c2ccnc(NCc3cccnc3)n2)cc1` came in with an IC50 of less than 50 µM.

For the compound `Fc1ccc(-c2ncn(-c3ccc(F)cc3)c2-c2ccnc(Nc3ccccc3)n2)cc1`, the IC50 is less than 50 µM.

Turning to `Cc1ccccc1Nc1nccc(-c2c(-c3ccc(F)cc3)ncn2C2CCNCC2)n1`, the IC50 is less than 50 µM.

Compound `CCOCC(=O)NCCn1cnc(-c2ccc(F)cc2)c1-c1ccnc(NCc2ccc(OC)cc2)n1` returned an IC50 of less than 50 µM.

`Fc1ccc(-c2ncn(C3CCCC3)c2-c2ccnc(Nc3ccccc3)n2)cc1` yielded an IC50 of less than 50 µM.

As to `CC(C)n1cnc(-c2ccc(F)cc2)c1-c1ccnc(Nc2ccccc2)n1`, the IC50 is less than 50 µM.

As for `Fc1ccc(-c2ncn(C3CCCCC3)c2-c2ccnc(Nc3ccccc3)n2)cc1`, the IC50 was less than 50 µM.

As for `O=C(Nc1cccc(C(F)(F)F)c1)N1CCC(n2cnc(-c3ccc(F)cc3)c2-c2ccnc(Nc3ccccc3C(F)(F)F)n2)CC1`, the IC50 is less than 50 µM.

The compound `Cc1cccc(C)c1Nc1nccc(-c2c(-c3ccc(F)cc3)ncn2-c2ccc(F)cc2)n1` came in with an IC50 of less than 50 µM.

On to `COc1ccc(C(=O)NCCn2cnc(-c3ccc(F)cc3)c2-c2ccnc(NCc3ccc(Cl)c(Cl)c3)n2)cc1OC`, for which the concentration for half-maximal inhibition (IC50) is less than 50 µM.

`Fc1ccc(-c2ncn(C3CCCCC3)c2-c2ccnc(NCCCN3CCOCC3)n2)cc1` displayed an IC50 of less than 50 µM.

On to `Cc1cccc(C)c1Nc1nccc(-c2c(-c3ccc(F)cc3)ncn2C2CCNCC2)n1`, for which the IC50 is less than 50 µM.

For `Fc1ccc(-c2ncn(C3CCCCC3)c2-c2ccnc(NCCC(c3ccccc3)c3ccccc3)n2)cc1`, the IC50 was less than 50 µM.

On to `Cc1ccccc1Nc1nccc(-c2c(-c3ccc(F)cc3)ncn2-c2ccc(F)cc2)n1`, for which the IC50 is less than 50 µM.

With `Fc1ccc(-c2ncn(-c3ccc(F)cc3)c2-c2ccnc(N3CCOC(Nc4ccccc4)C3)n2)cc1` (stereo not given), the IC50 is less than 50 µM.

`Cc1ccc(F)cc1Nc1nccc(-c2c(-c3ccc(F)cc3)ncn2C2CCNCC2)n1`: the IC50 was less than 50 µM.

Compound `Cc1cc(F)ccc1Nc1nccc(-c2c(-c3ccc(F)cc3)ncn2C2CCN(C(=O)OC(C)(C)C)CC2)n1` displayed an IC50 of less than 50 µM.

`Fc1ccc(Nc2nccc(-c3c(-c4ccc(F)cc4)ncn3-c3ccc(F)cc3)n2)cc1` gave an IC50 of less than 50 µM.

`CC(CCc1ccccc1)Nc1nccc(-c2c(-c3ccc(F)cc3)ncn2C2CCCCC2)n1` (stereo not given) yielded an IC50 of less than 50 µM.
